Patent publication US6579899B1, “Composition for treatment of stress” (Massachusetts Institute of Technology, priority 1998, dated 2003)
Entries after “also recorded” stand apart in the source; their conditions may differ.

Assays:
obese, stressed patients [1] = assay: questionnaire rating tendency to eat in response to emotional and stressful triggers; format: in vivo, human
Excerpt: (§1) A subgroup of obese individuals is identified, which individuals describe themselves as being unable to control their eating and who attempt to continue on a weight-reducing diet when experiencing emotional distress. […]
(§2) Objective measurements of emotional distress are made in some patients using the CES-D (Center for […] Depression Form) test, which measures current levels of emotional distress (Radloff, et al., The CES-D Scale: A Self Report Depression Scale for Research in the General Population Applied Psychological Measurement 1: 385-401, 1977); and the POMS (Profile of Mood States test, that assesses tension, depression, anger and confusion (McNair, et al., Profile of Mood States Manual;San Diego: Educational and Industrial Testing Service, 1971); both of these references are hereby incorporated by reference in their entirety. These tests are also given monthly during the treatment period. At the same time, patients also complete questionnaires that ask the patients to rate their appetite and hunger, and also to rate their tendency to eat in response to a variety of emotional and stressful triggers. The patients are also weighed monthly.

obese, stressed patients [2] = assay: CES-D test of current levels of emotional distress in patients; format: in vivo, human
Excerpt: as §1, §2

obese, stressed patients [3] = assay: questionnaire rating appetite and hunger; format: in vivo, human; conditions: 30 mg/day; for Appetite and Cravings: patient six
Excerpt: as §1, §2

rats = conditions: cited from earlier work; for tail pressure/tail pinch-induced eating: Rowland et al.
obese, stressed patients [4] = assay: POMS (Profile of Mood States) test; format: in vivo, human; conditions: 30 mg/day, during the study period, baseline 24
Procedure: A subgroup of obese individuals is identified, which individuals describe themselves as being unable to control their eating and who attempt to continue on a weight-reducing diet when experiencing emotional distress. These patients are treated for four months by enrolling them in a weight loss program which includes the administration of dexfenfluramine at 30 mg/day and which involves adherence to a reduced-calorie meal plan.
as §2

[5] = body weight in four month weight loss program; format: in vivo, human
Excerpt: as §1, §2

[6] = patient six, 30 mg/day, Month 4, baseline 23
[7] = patient six, 30 mg/day, Month 4, baseline 5

CCNC(C)Cc1cccc(C(F)(F)F)c1 (racemic) [D,L-fenfluramine, N-ethyl-α-methyl-3-(trifluoro-methyl)benzeneethanamine]
Emotional Triggers (obese, stressed patients [1]; patient six, 30 mg/day, Month 1, baseline 23): 2
Emotional Triggers (obese, stressed patients [1]; patient six, 30 mg/day, Month 2, baseline 23): 3
Emotional Triggers (obese, stressed patients [1]; patient six, 30 mg/day, Month 3, baseline 23): 2
Emotional Triggers (obese, stressed patients [1]; [6]): 4
Mood Scores CES-D (obese, stressed patients [2]; patient six, 30 mg/day, Month 1, baseline 5): 1
Mood Scores CES-D (obese, stressed patients [2]; patient six, 30 mg/day, Month 2, baseline 5): 3
Mood Scores CES-D (obese, stressed patients [2]; patient six, 30 mg/day, Month 3, baseline 5): 2
Mood Scores CES-D (obese, stressed patients [2]; [7]): 1
Appetite and Cravings (obese, stressed patients [3]; Month 1, baseline 10): 2
Appetite and Cravings (obese, stressed patients [3]; Month 2, baseline 10): 5
Appetite and Cravings (obese, stressed patients [3]; Month 3, baseline 10): 5
Appetite and Cravings (obese, stressed patients [3]; Month 4, baseline 10): 4
tail pressure/tail pinch-induced eating (rats): inhibits tail pressure-induced eating

CCN[C@@H](C)Cc1cccc(C(F)(F)F)c1 [dexfenfluramine]
summed Tension, Depression, Anger and Confusion scores on the POMS test (obese, stressed patients [4]): 16.8
ability of stressed overeaters to lose weight ([5]; 30 mg/day, four months, reduced-calorie meal plan): enhance the ability of stressed overeaters to lose weight; also recorded: promotes the ability to control food intake and to lose weight
weight at the end of 4 months ([5]; patient eleven, 30 mg/day, starting weight 90.0 kg): 82.6 kg
weight at the end of 4 months ([5]; patient eleven, 30 mg/day, starting weight 198 pounds): 181.7 pounds
weight after 4 months ([5]; patient six, 30 mg/day, starting weight 98.2 kg): 93.4 kg
weight after 4 months ([5]; patient six, 30 mg/day, starting weight 216 pounds): 205.5 pounds
weight after 4 months ([5]; patient ten, 75 rising to 150 mg/day, starting weight 83.6 kg): 76.8 kg
weight after 4 months ([5]; patient ten, 75 rising to 150 mg/day, starting weight 184 pounds): 169 pounds
weight after 4 months ([5]; patient three, 50 rising to 150 mg/day, starting weight 137.3 kg): 130 kg
weight after 4 months ([5]; patient three, 50 rising to 150 mg/day, starting weight 302 pounds): 286 pounds
weight at the end of 4 months ([5]; patient twelve, 75 then 100 mg/day, starting weight 90.0 kg): 82.6 kg
weight at the end of 4 months ([5]; patient twelve, 75 then 100 mg/day, starting weight 198 pounds): 182 pounds
score on the emotional triggers to overeating report (obese, stressed patients [1]; 30 mg/day, end of the treatment period, from 23.4±9.8, ± standard deviations): 8.6±8.5
Emotional Triggers (obese, stressed patients [1]; patient eleven, 30 mg/day, Month 4, baseline 30): 7
Emotional Triggers (obese, stressed patients [1]; [6]): 4
Emotional Triggers (obese, stressed patients [1]; patient ten, 75 rising to 150 mg/day, Month 4, baseline 14): 2
Emotional Triggers (obese, stressed patients [1]; patient three, 50 rising to 150 mg/day, Month 4, baseline 34): 24
Emotional Triggers (obese, stressed patients [1]; patient twelve, 75 then 100 mg/day, Month 4, baseline 25): 3
lowered CES-D score (obese, stressed patients [2]; 30 mg/day, fifth of six women, from 15): 7
lowered CES-D score (obese, stressed patients [2]; 30 mg/day, first of six women with above normal score at start, from 34): 7
lowered CES-D score (obese, stressed patients [2]; 30 mg/day, fourth of six women, from 19): 5
lowered CES-D score (obese, stressed patients [2]; 30 mg/day, second of six women, from 37): 8
lowered CES-D score (obese, stressed patients [2]; 30 mg/day, sixth of six women, from 15): 3
indicators of stress (obese, stressed patients [2]; 30 mg/day, stress-induced overeaters): reduces the indicators of stress
lowered CES-D score (obese, stressed patients [2]; 30 mg/day, third of six women, from 22): 9
Mood Scores CES-D (obese, stressed patients [2]; patient eleven, 30 mg/day, Month 4, baseline 19): 4
Mood Scores CES-D (obese, stressed patients [2]; [7]): 1
Mood Scores CES-D (obese, stressed patients [2]; patient ten, 75 rising to 150 mg/day, Month 4, baseline 8): 2
Mood Scores CES-D (obese, stressed patients [2]; patient three, 50 rising to 150 mg/day, Month 4, baseline 23): 17
Mood Scores CES-D (obese, stressed patients [2]; patient twelve, 75 then 100 mg/day, Month 4, baseline 29): 18
score on the appetite and hunger scale (obese, stressed patients [3]; during the treatment period, initial score 10.5): 5.0
tail pressure/tail pinch-induced eating (rats): decrease the eating behavior
DI50, inhibition of tail pressure-induced eating (rats; reported by Garattini, quoted from Rowland et al.): 0.6 mg/kg
